# Measured values taken from PubChem BioAssay AID1963446 (Molecular Pharmacology Branch, DTP, NCI, 2024).
# “And” between values parts separate entries of the source, which are not always exact repeats. Equal entries are not always repeated.
# System: 993429-296-R-J1-PDC complex spheroid growth, percent test/control
# Assay: Anticancer human tumor 993429-296-R-J1-PDC patient-derived uterine sarcoma cell line growth inhibition [Asc]
# Settings: for viability, T/C: stronger effect = lower value
# Method: Multicellular complex tumor spheroid response to apoptosis pathway targeting inhibitors Alrizomadlin, Pelcitoclax, and Dasminapant in combination with a variety of drugs and investigational agents in selected tumor cell lines
# The MDM2 inhibitor alrizomadlin, the Bcl-2/Bcl-xL inhibitor pelcitoclax, and the IAPs inhibitor dasminapant were evaluated both individually and in combination with standard of care and investigational anticancer small molecules within a complex spheroid model of solid tumors. . Complex spheroids include a stromal component modeled by human endothelial cells (HUVEC) and fibroblasts modeled by human mesenchymal stem cells (MSCs). The concentration ranges selected for each drug and investigational agent were based upon clinically achievable concentrations if the clinical Cmax of the agent was known.
# Compounds. The drugs and investigational agents: alrizomadlin (APG-115; NSC831270), pelcitoclax (APG-1252; NSC835773), dasminapant (APG-1387;NSC834197), TAK-243 (NSC785004), copanlisib (NSC809693), olaparib (NSC753686), talazoparib (NSC767125), cobimetinib (NSC 768068), eltanexor (KPT-8602, NSC 794443), abemaciclib (NSC 768073), sotorasib (NSC818433), adagrasib (NSC 831453), MRTX-1133 (NSC 836407), Iadademestat (ORY1001, NSC 806812), and RMC-4630 (NSC839698), were obtained from the NCI Developmental Therapeutics Program Chemical Repository. The FDA-approved anticancer drug set is available from the Developmental Therapeutics Program at https://dtp.cancer.gov/organization/dscb/obtaining/available plates.htm. […] The stock solutions were prepared in dimethyl sulfoxide (DMSO, Sigma-Aldrich, St. Louis, MO, cat. D2650) at 800-fold the tested concentration and stored at -70 degrees C prior to their use. All drugs and investigational agents were tested over a range starting from a high concentration at or near the clinical Cmax and decreasing in half-log increments. If the clinical Cmax for an agent had not been determined, the highest concentration tested was 10 microM.
# The patient-derived cancer (PDC) cell lines include five colon adenocarcinomas: 186277-243-T-J2-PDC, 616215-338-R-J1-PDC, 439559-082-T-J2-PDC, 463943-066-T-J2-PDC, and 519858-162-T-J1-PDC; three pancreatic carcinomas: 323965-272-R-J2-PDC, 521955-158-R6-J3-PDC, and 521955-158-R2-J5-PDC; two uterine sarcomas: 327498-152-R-J2-PDC and 993429-296-R-J1-PDC; two rhabdomyosarcomas: 755483-174-R-J1-PDC and 772245-204-R-J1-PDC; two soft tissue sarcomas: 126254-015-R-J1-PDC and 494315-158-R-J1-PDC; two malignant fibrous histiocytomas: 317291-083-R-J1-PDC and 596521-263-R-J1-PDC; two breast carcinomas: 171881-019-R-J1-PDC and 885512-296-R-J2-PDC; and one ovarian carcinoma: 6556581-035-R-J-PDC were obtained from the NCI PDMR, (https://pdmr.cancer.gov). The established cell lines HSSY-2 synovial sarcoma (RRID:CVCL 8719), SYO-1 synovial sarcoma (RRID:CVCL_7146), MPNST malignant peripheral neural sheath tumor were obtained from the Sloan Kettering Institute. The following established cell lines were purchased from the American Type Culture Collection (ATCC, Manassas, VA), Sor the received from the NCI repository:, PANC-1 pancreatic carcinoma (CRL-1469, RRID:CVCL_0480), OVCAR-5 ovarian carcinoma (RRID:CVCL_1628), OVCAR-8 ovarian carcinoma (RRID:CVCL_1629), , MCF-7 breast carcinoma (CRL-12584, RRID:CVCL_0031), MDA-MB-231 breast carcinoma (CRL-12532, RRID:CVCL_0062), NCI-H1876 small cell lung carcinoma (CRL-5902, RRID:CVCL_1503), NCI-H510A small cell lung carcinoma (HTB-184, RRID:CVCL_1565), NCI-H1417 (CRL-5869, RRID:CVCL_1469), and NCI-H196 small cell lung carcinoma (CRL-5823, RRID:CVCL_1509). Dr. Peter Houghton (Greehey Children's Cancer Research Institute, University of Texas Health Science Center, San Antonio, TX) provided Rh-18 rhabdomyosarcoma (RRID:CVCL_1659). Pooled donor human umbilical vein endothelial cells (HUVEC, Lonza, cat. CC-2519) and human mesenchymal stem cells (hMSC, Lonza, cat. PT-2501) were purchased from Lonza (Walkersville, MD).
# Cell Culture. […]
# 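Also: spheroids exposed to compounds for seven days.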
smiles,measurement,setting,value
NC(=O)C(=Cn1cnc(-c2cc(C(F)(F)F)cc(C(F)(F)F)c2)n1)c1cncnc1,"viability, T/C",compound 0.000949 µM,94.3% and 102% and 110%
same,"viability, T/C",compound 0.003 µM,82.4% and 87.5% and 105%
same,"viability, T/C",compound 0.00949 µM,76.6% and 76% and 91.7%
same,"viability, T/C",compound 0.03 µM,41.9% and 34.6% and 60.8%
same,"viability, T/C",compound 0.0949 µM,17% and 17.8% and 30.1%
same,"viability, T/C",compound 0.3 µM,8.93% and 7.15% and 11.8%
same,IC50,curve of compound,23 nM and 19.9 nM and 45.4 nM
NC(=O)C(=Cn1cnc(-c2cc(C(F)(F)F)cc(C(F)(F)F)c2)n1)c1cncnc1 + CNC(C)C(=O)NC1CN(S(=O)(=O)c2cccc(S(=O)(=O)N3CCC4CCC(C(=O)NC(c5ccccc5)c5ccccc5)N4C(=O)C(NC(=O)C(C)NC)C3)c2)CCC2CCC(C(=O)NC(c3ccccc3)c3ccccc3)N2C1=O,IC50,"curve of first compound, second compound 0.01 µM",12.8 nM
same,IC50,"curve of first compound, second compound 0.0316 µM",11.1 nM
same,IC50,"curve of first compound, second compound 0.1 µM",8.96 nM
same,IC50,"curve of first compound, second compound 0.316 µM",5.99 nM
same,IC50,"curve of first compound, second compound 1 µM",8.1 nM
same,"viability, T/C","second compound 0.01 µM, first compound 0.000949 µM",62.7%
same,"viability, T/C","second compound 0.01 µM, first compound 0.003 µM",65.6%
same,"viability, T/C","second compound 0.01 µM, first compound 0.00949 µM",55.4%
same,"viability, T/C","second compound 0.01 µM, first compound 0.03 µM",33.1%
same,"viability, T/C","second compound 0.01 µM, first compound 0.0949 µM",14.9%
same,"viability, T/C","second compound 0.01 µM, first compound 0.3 µM",8.47%
same,"viability, T/C","second compound 0.0316 µM, first compound 0.000949 µM",63.6%
same,"viability, T/C","second compound 0.0316 µM, first compound 0.003 µM",63.1%
same,"viability, T/C","second compound 0.0316 µM, first compound 0.00949 µM",52.1%
same,"viability, T/C","second compound 0.0316 µM, first compound 0.03 µM",33%
same,"viability, T/C","second compound 0.0316 µM, first compound 0.0949 µM",14.9%
same,"viability, T/C","second compound 0.0316 µM, first compound 0.3 µM",8%
same,"viability, T/C","second compound 0.1 µM, first compound 0.000949 µM",58.3%
same,"viability, T/C","second compound 0.1 µM, first compound 0.003 µM",61.1%
same,"viability, T/C","second compound 0.1 µM, first compound 0.00949 µM",48.1%
same,"viability, T/C","second compound 0.1 µM, first compound 0.03 µM",33.3%
same,"viability, T/C","second compound 0.1 µM, first compound 0.0949 µM",16%
same,"viability, T/C","second compound 0.1 µM, first compound 0.3 µM",4.45%
same,"viability, T/C","second compound 0.316 µM, first compound 0.000949 µM",57.6%
same,"viability, T/C","second compound 0.316 µM, first compound 0.003 µM",60%
same,"viability, T/C","second compound 0.316 µM, first compound 0.00949 µM",43.7%
same,"viability, T/C","second compound 0.316 µM, first compound 0.03 µM",29%
same,"viability, T/C","second compound 0.316 µM, first compound 0.0949 µM",15.8%
same,"viability, T/C","second compound 0.316 µM, first compound 0.3 µM",8.88%
same,"viability, T/C","second compound 1 µM, first compound 0.000949 µM",52%
same,"viability, T/C","second compound 1 µM, first compound 0.003 µM",62.6%
same,"viability, T/C","second compound 1 µM, first compound 0.00949 µM",47.8%
same,"viability, T/C","second compound 1 µM, first compound 0.03 µM",28.5%
same,"viability, T/C","second compound 1 µM, first compound 0.0949 µM",14.1%
same,"viability, T/C","second compound 1 µM, first compound 0.3 µM",5.77%
Cn1ncnc1[C@H]1c2n[nH]c(=O)c3cc(F)cc(c23)N[C@@H]1c1ccc(F)cc1,"viability, T/C",compound 0.000316 µM,92.8% and 98.9% and 94.3%
same,"viability, T/C",compound 0.001 µM,93.2% and 97.5% and 95.5%
same,"viability, T/C",compound 0.00316 µM,83.8% and 99.4% and 81.2%
same,"viability, T/C",compound 0.01 µM,74.3% and 92% and 84.6%
same,"viability, T/C",compound 0.0316 µM,62.5% and 70.2% and 57.7%
same,"viability, T/C",compound 0.1 µM,35.8% and 69.9% and 42%
same,IC50,curve of compound,52.4 nM and > 100 nM and 58.6 nM
